Results from patent publication US7638284B2, “Immunoglobulin A inducing protein and uses therefor” (The Curators of the University of Missouri, priority 2000, dated 2009).
Entries after “also recorded” stand apart in the source; their conditions may differ.

Tests used:
sIgD+ B cells = experiment: Bioassay for IGIP activity on naive human B cells (CD40L, IL-2, with or without IL-10; ELISA day 14); format: cell-based
Description: Total PBMC's were isolated from normal healthy donors via gradient centrifugation and labeled with biotinylated mouse monoclonal antibody (mAB) to human IgD. Pure sIgD^+ B cells were then isolated with Streptavidin-coated Microbeads using an AutoMACS magnetic cell sorter.
Enriched sIgD^+ B cells were cultured in RPM1 1640 (supplemented with 10% FBS, 2 mM L-glutamine, 100 U/ml penicillin and 100 μg/ml streptomycin) at 0.8-1.0×10^5 cells/well in 96-well plates. B cells were co-cultured at a 4:1 ratio with mitomycin C treated DAP3 cells stably transfected with CD40L and 50 ng/ml IL-2, with or without 50 ng/ml IL-10. Cell cultures were then stimulated with 0.1, 1.0 or 10 ng/ml IGIP, 1.0 ng/ml TGF-β, or left unstimulated. Culture supernatants were assayed for secreted immunoglobulins (IgM, IgG, and IgA) by ELISA on day 14.

IGIP mRNA = experiment: Taqman RT-PCR relative quantification of steady state IGIP mRNA in PMA stimulated cell subsets; format: cell-based, bovine; conditions: 5 ng/ml PMA for 18 hours
From the text: Selective IgA deficiency (IgAD) is the most common primary immunodeficiency. […] To determine if abnormalities of IGIP production, function or cellular responsiveness to IGIP are altered in all or a subpopulation of patients with IgAD, a sampling approach is used to screen as many clinical and immunological types of adult subjects as possible for IGIP abnormalities. The relative contribution of PBMC-derived populations can be ranked based on quantitative PCR assessment of resting versus phorbol ester stimulated bovine cells; DC>B cells>T cells>monocytes (see Table VI below).

peripheral blood B cells = experiment: Bovine B cell bioassay (CD40L-DAP3 cells + IL-2, 7 days) with ELISA for secreted IgA, IgM, IgG; format: cell-based
Description: Peripheral blood mononuclear cells (PBMCs) were isolated from the peripheral blood of 6-12 month old Holstein or Angus heifers or steers by incubating 30 ml of red cell lysis buffer (0.15 NH4Cl, 10 mM KHCO3, 1 mM EDTA, H2O) with 20 ml of blood for 20 minutes at room temperature. During this incubation, carbonyl iron (0.1 μg/ml) was added to the blood mixture for 20 minutes and then exposed to a magnetic field for 2 minutes to remove phagocytic cells. Following incubation, the cells were washed 3 times with Hank's buffered salt solution (HBSS). B lymphocytes were enriched by panning in the presence of 3% bovine serum albumin (BSA, Fraction V, Sigma, St. Louis, Mo.) in HBSS as described in Severson et al. (1987). Briefly, PBMCs were resuspended at a concentration of 1×10^7 cells/ml in panning solution (3% BSA, 10 mM Tris, 50 μg/ml gentamicin, 0.0025 mM CaCl2, and 0.002 mM MgCl2 in HBSS) and allowed to adhere to plastic tissue culture plates for 1 hour. Non-adherent cells were removed by washing twice with HBSS and adherent cells (enriched B cells) were harvested by vigorous pipetting. 1×10^5 B cells and 2×10^4 mitomycin C treated CD40L-DAP3 transfected cells were cultured for 7 days in 96-well plates in 2001 μl final volume complete medium (RPMI 1640) and 10% immunoglobulin free normal horse serum with 1 ng/ml recombinant huIL-2 (Peppro Tech Inc., Rocky Hill, N.J.) and 10% culture supernatant from cells transfected with library plasmids. Where indicated, pre-committed B cells and residual T cells were depleted by incubating panned B cells for 30 minutes on ice with 30 μl each of mouse anti-bovine IGA (Serotec, Raleigh, N.C.), mouse anti-bovine IgG1 (Serotec), mouse anti-bovine IgG2 (Serotec), and MM1A (anti-CD3 antibody, VMRD, Pullman, Wash.). The cells were washed 3 times with HBSS and sheep anti-mouse IgG Dynabeads (Dynal, Oslow, Norway) were added according to the manufacturer's instructions. The B cells were then placed in a magnetic field and the non-adherent cells removed. These cells were next incubated on ice for 30 minutes with biotinylated goat anti-bovine IgM (Kirkegard and Perry (KPL), Gaithersburg, Md.), washed 3 times and streptavidin beads (Dynal) were added according to the manufacturer's instructions. The cells were placed on a magnetic field and the adherent cells (IgM^+ B cells) were harvested. All bioassays were performed in triplicate in 96-well Corning flat bottom plates.
Other reagents used in these studies were goat anti-bovine IgM (5 μg/ml, KPL) and porcine TGF-β (1 ng/ml, R & D Systems, Minneapolis, Minn.) that had been acid-activated according to the manufacturer's instructions. […]

[1] = in the presence of IL-10, CD40L + IL-2, IGIP 0.1 to 10 ng/ml, TGF-β 1 ng/ml, 14 days

IGIP: human homolog of IGIP, 0.1 to 10 ng/ml on naive human IgD+ B cells (Example III) (MKKRSVSGCNITIFAVMFSHLSAGKSPCGNQANVLCISRLEFVQYQS)
IgA production by naive IgD+ B cells (in words) (sIgD+ B cells; IL-10, CD40L dependent, B-cell-receptor independent): enhanced IgA production
number of IgA producing cells compared with TGF-β (sIgD+ B cells; in the presence of IL-10): greater number of IgA producing cells
IgA production, level relative to TGF-β (sIgD+ B cells; [1]): 4-6 fold
IgG production, level relative to TGF-β (sIgD+ B cells; [1]): 4-6 fold
IgM production, level relative to TGF-β (sIgD+ B cells; [1]): 4-6 fold

CCCCCCCCCCCCCC(=O)O[C@@H]1[C@@H](C)[C@@]2(O)[C@@H](C=C(CO)C[C@]3(O)C(=O)C(C)=C[C@@H]23)[C@@H]2C(C)(C)[C@]12OC(C)=O [PMA, phorbol myristic acetate]
IGIP mRNA fold increase, stimulated vs unstimulated (IGIP mRNA; CD3+ cells): 2.03 fold
IGIP mRNA, relative quantification, stimulated cells (IGIP mRNA; CD3+ cells): 4.79 × 10^−5
IGIP mRNA fold increase, stimulated vs unstimulated (IGIP mRNA; CD14+ cells): 0.64 fold
IGIP mRNA, relative quantification, stimulated cells (IGIP mRNA; CD14+ cells): 1.00 × 10^−5
IGIP mRNA fold increase, stimulated vs unstimulated (IGIP mRNA; CD21+ cells): 7.6 fold
IGIP mRNA, relative quantification, stimulated cells (IGIP mRNA; CD21+ cells): 3.65 × 10^−4
IGIP mRNA fold increase, stimulated vs unstimulated (IGIP mRNA; DC): 7205 fold
IGIP mRNA, relative quantification, stimulated cells (IGIP mRNA; DC): 0.263

TGF-β: porcine TGF-β (1 ng/ml, R & D Systems), acid-activated
effect on IgA production (in words) (peripheral blood B cells; B cells stimulated via CD40L + IL-2 (CD40 alone)): less IgA production; also recorded: decreased IgA production
effect on IgA production (in words) (peripheral blood B cells; B cells stimulated via CD40 and anti-IgM (BCR)): induced IgA production
IgA production over that of B cells stimulated via CD40L + anti-IgM + IL-2 alone (peripheral blood B cells; Table IV experiment 2, dual stimulation CD40 and BCR): 10 fold
